The values below come from patent publication US20240217978A1 (CHONG KUN DANG PHARMACEUTICAL CORP., priority 2021, published 2024).

The target in this assay is human adenosine A2a receptor (Homo sapiens (Human), UniProt P29274). Put plainly: A2a receptor binding affinity, [3H]-NECA radioligand binding test. The settings on record: [3H]-NECA 37 nM; membrane from HEK-293 cells transfected with human adenosine A2a receptor. The method, then: The binding affinity of the compounds according to Examples of the present invention to the human adenosine A2a receptor was evaluated by entrusting SB drug discovery in the UK.
Sequence of human adenosine A2a receptor (P29274 whole entry): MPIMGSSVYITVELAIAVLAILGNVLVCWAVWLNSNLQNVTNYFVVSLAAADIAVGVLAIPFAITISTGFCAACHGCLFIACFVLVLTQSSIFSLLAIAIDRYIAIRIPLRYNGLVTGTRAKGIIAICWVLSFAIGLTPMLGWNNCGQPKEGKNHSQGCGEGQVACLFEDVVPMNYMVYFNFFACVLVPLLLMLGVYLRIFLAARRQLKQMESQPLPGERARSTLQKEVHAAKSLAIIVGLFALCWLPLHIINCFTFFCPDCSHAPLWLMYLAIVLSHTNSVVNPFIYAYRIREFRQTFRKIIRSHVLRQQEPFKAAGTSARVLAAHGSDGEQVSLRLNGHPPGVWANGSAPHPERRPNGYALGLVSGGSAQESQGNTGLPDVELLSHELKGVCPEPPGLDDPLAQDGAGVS
A radioligand binding test was conducted by using [3H]-NECA (5′-N-[adenine-2,8-3H]-ethylcarboxamidoadenosine) and an adenosine A2a membrane. As the adenosine A2a membrane, a cell membrane prepared from HEK-293 cells transfected with human adenosine A2a receptor was used. The membrane used for the test was prepared by incubating with a radioligand until equilibrium was reached. In order to separate the radioligand-bound membrane, the unbound radioligand was separated by using Packard filtermate Harverster and glass filter plates.
10 μL of test compound dissolved in binding buffer (50 mM Tris, 10 mM MgCl2, 1 mM EDTA pH 7.4) and 20 μL of [3H]-NECA (final concentration of 37 nM) or reference inhibitor was mixed with 20 μL of A2a membrane in an unbound 96-well plate and incubated at room temperature for one hour. Prior to filtration, a 96-well harvest filter plate was coated with 0.33% polyethylenimine for 30 minutes and then washed with assay buffer. The binding reaction was transferred to the filter plate and washed three times with wash buffer. The dish was then dried, scintillant was added, and radioactivity was counted in a scintillation counter (Topcount NXT, Packard).
The binding affinity IC50 (μM) for the human adenosine A2a receptor obtained according to the above experimental method is shown in the table below.
Molecule `Cc1ccc(-c2nc3nc(N4CCC[C@H]4C(=O)N4CCN(c5ccccc5C(F)(F)F)CC4)nc(N)n3n2)o1` [Example 200, (S)-(1-(7-amino-2-(5-methylfuran-2-yl)-[1,2,4]triazolo[1,5-a][1,3,5]triazin-5-yl)pyrrolidin-2-yl)(4-(2-(trifluoromethyl)phenyl)piperazin-1-yl)methanone] gave an IC50 of 1 nM. For `Nc1nc(N2CC[C@H]2C(=O)N2CCN(C(=O)Nc3ccccc3)CC2)nc2nc(-c3ccco3)nn12` [Example 110, (S)-4-(1-(7-amino-2-(furan-2-yl)-[1,2,4]triazolo[1,5-a][1,3,5]triazine-5-yl)azetidin-2-carbonyl)-N-phenylpiperazin-1-carboxamide] the value was 12 nM; for `CC(C)(C)N1CCN(C(=O)[C@@H]2CCCN2c2nc(N)n3nc(-c4ccco4)nc3n2)CC1` [Example 137, (S)-(1-(7-amino-2-(furan-2-yl)-[1,2,4]triazolo[1,5-a][1,3,5]triazin-5-yl)pyrrolidin-2-yl)(4-(tert-butyl)piperazin-1-yl)methanone], 48 nM; for `Cc1ccc(-c2nc3nc(N4CC[C@H]4C(=O)N4CCN(C(=O)CC(C)(C)O)CC4)nc(N)n3n2)o1` [Example 315, (S)-1-(4-(1-(7-amino-2-(5-methylfuran-2-yl)-[1,2,4]triazolo[1,5-a][1,3,5]triazin-5-yl)azetidine-2-carbonyl)piperazin-1-yl)-3-hydroxy-3-methylbutan-1-one], 16 nM. In turn, `Nc1nc(N2CCC[C@H]2C(=O)N2CCN(C3COC3)CC2)cc2nc(-c3ccco3)nn12` [Example 404] yielded an IC50 of 18 nM. For `CC(C)(O)CC(=O)N1CCN(C(=O)[C@@H]2CCCN2c2nc(N)n3nc(-c4ccco4)nc3n2)CC1` [Example 229, 1-(4-((7-amino-2-(furan-2-yl)-[1,2,4]triazolo[1,5-a][1,3,5]triazin-5-yl)-L-prolyl)piperazin-1-yl)-3-hydroxy-3-methylbutan-1-one], the IC50 was 12 nM. `CC(C)(O)C(=O)N1CCN(C(=O)[C@@H]2CCN2c2nc(N)n3nc(-c4ccco4)nc3n2)CC1` [Example 267, (S)-1-(4-(1-(7-amino-2-(furan-2-yl)-[1,2,4]triazolo[1,5-a][1,3,5]triazin-5-yl)azetidine-2-carbonyl)piperazin-1-yl)-2-hydroxy-2-methylpropan-1-one] showed an IC50 of 10.8 nM.

On to `CC(C)(F)CN1CCN(C(=O)[C@@H]2CC3(CC3)CN2c2nc(N)n3nc(-c4ccco4)nc3n2)CC1` [Example 386, (S)-(5-(7-amino-2-(furan-2-yl)-[1,2,4]triazolo[1,5-a][1,3,5]triazin-5-yl)-5-azaspiro[2.4]heptan-6-yl)(4-(2-fluoro-2-methylpropyl)piperazin-1-yl)methanone], for which the IC50 is 8 nM. The figure for `Nc1nc(N2CCC[C@@H]2C(=O)N2CCN(c3ccc(F)cc3F)CC2)nc2nc(-c3ccco3)nn12` [Example 97, (R)-(1-(7-amino-2-(furan-2-yl)-[1,2,4]triazolo[1,5-a][1,3,5]triazin-5-yl)pyrrolidin-2-yl)(4-(2,4-difluorophenyl)piperazin-1-yl)methanone] is 3350 nM; for `Nc1nc(N2CCC[C@H]2C(=O)N2CCN(C(=O)C3(C(F)(F)F)CC3)CC2)nc2nc(-c3ccco3)nn12` [Example 74] it is 13 nM. The figure for `Nc1nc(N[C@H](C(=O)N2CCN(c3ccc(F)cc3F)CC2)C2CCOCC2)nc2nc(-c3ccco3)nn12` [Example 171, (S)-2-((7-amino-2-(furan-2-yl)-[1,2,4]triazolo[1,5-a][1,3,5]triazin-5-yl)amino)-1-(4-(2,4-difluorophenyl)piperazin-1-yl)-2-(tetrahydro-2H-pyran-4-yl)ethan-1-one] is 3 nM; for `CC(F)(F)CN1CCN(C(=O)[C@@H]2CCCN2c2cc3nc(-c4ccco4)nn3c(N)n2)CC1` [Example 294, (S)-(1-(5-amino-2-(furan-2-yl)-[1,2,4]triazolo[1,5-c]pyrimidin-7-yl)pyrrolidin-2-yl)(4-(2,2-difluoropropyl)piperazin-1-yl)methanone] it is 4 nM; for `CC[C@H](Nc1nc(N)n2nc(-c3ccco3)nc2n1)C(=O)N1CCN(CC(F)(F)C(F)F)CC1` [Example 358, (S)-2-((7-amino-2-(furan-2-yl)-[1,2,4]triazolo[1,5-a][1,3,5]triazin-5-yl)amino)-1-(4-(2,2,3,3-tetrafluoropropyl)piperazin-1-yl)butan-1-one] it is 10 nM. For `CC(F)(F)CN1CCN(C(=O)[C@@H](Nc2nc(N)n3nc(-c4ccco4)nc3n2)C2CC2)CC1` [Example 357, (S)-2-((7-amino-2-(furan-2-yl)-[1,2,4]triazolo[1,5-a][1,3,5]triazin-5-yl)amino)-2-cyclopropyl-1-(4-(2,2-difluoropropyl)piperazin-1-yl)ethan-1-one] the value was 9 nM; for `CC(C)(C(=O)N1CCN(C(=O)[C@@H]2CCCN2c2nc(N)n3nc(-c4ccco4)nc3n2)CC1)C(F)(F)F` [Example 86, 1-(4-((7-amino-2-(furan-2-yl)-[1,2,4]triazolo[1,5-a][1,3,5]triazin-5-yl)-L-prolyl)piperazin-1-yl)-3,3,3-trifluoro-2,2-dimethylpropan-1-one], 15 nM.

Molecule `CCCCN1CCN(C(=O)[C@H](CC)Nc2nc(N)n3nc(-c4ccco4)nc3n2)CC1` [Example 172, (S)-2-((7-amino-2-(furan-2-yl)-[1,2,4]triazolo[1,5-a][1,3,5]triazin-5-yl)amino)-1-(4-butylpiperazin-1-yl)butan-1-one] came in with an IC50 of 13 nM. `CCCCN1CCN(C(=O)[C@H](Cc2ccccc2)Nc2nc(N)n3nc(-c4ccco4)nc3n2)CC1` [Example 191, (S)-2-((7-amino-2-(furan-2-yl)-[1,2,4]triazolo[1,5-a][1,3,5]triazin-5-yl)amino)-1-(4-butylpiperazin-1-yl)-3-phenylpropan-1-one] came in with an IC50 of 6 nM. For `Nc1nc(N2CCC[C@H]2C(=O)N2CCN(CC(F)F)CC2)nc2oc(-c3ccco3)nc12` [Example 269, (S)-(1-(7-amino-2-(furan-2-yl)oxazolo[5,4-d]pyrimidin-5-yl)pyrrolidin-2-yl)(4-(2,2-difluoroethyl)piperazin-1-yl)methanone], the IC50 was 39 nM.

`C[C@H](Nc1nc(N)n2nc(-c3ccco3)nc2n1)C(=O)N1CCN(CC(C)(C)F)CC1` [Example 119, (S)-2-((7-amino-2-(furan-2-yl)-[1,2,4]triazolo[1,5-a][1,3,5]triazin-5-yl)amino)-1-(4-(2-fluoro-2-methylpropyl)piperazin-1-yl)propan-1-one] gave an IC50 of 9 nM. The figure for `CC(C)(O)CN1CCN(C(=O)[C@@H]2CCCN2c2nc(N)n3nc(-c4ccco4)nc3n2)CC1` [Example 302, (S)-(1-(7-amino-2-(furan-2-yl)-[1,2,4]triazolo[1,5-a][1,3,5]triazin-5-yl)pyrrolidin-2-yl)(4-(2-hydroxy-2-methylpropyl)piperazin-1-yl)methanone] is 6 nM; for `C[C@H](Nc1nc(N)n2nc(-c3ccco3)nc2n1)C(=O)N1CCN(CC(C)(F)F)CC1` [Example 317, (S)-2-((7-amino-2-(furan-2-yl)-[1,2,4]triazolo[1,5-a][1,3,5]triazin-5-yl)amino)-1-(4-(2,2-difluoropropyl)piperazin-1-yl)propan-1-one] it is 13 nM. `Nc1nc(N[C@H](C(=O)N2CCN(CC(F)(F)F)CC2)C2CCCCC2)nc2nc(-c3ccco3)nn12` [Example 148, (S)-2-((7-amino-2-(furan-2-yl)-[1,2,4]triazolo[1,5-a][1,3,5]triazin-5-yl)amino)-2-cyclohexyl-1-(4-(2,2,2-trifluoroethyl)piperazin-1-yl)ethan-1-one] registered a half-inhibitory concentration (IC50) of 8 nM. The figure for `COCCN1CCN(C(=O)[C@H]2CCCN2c2nc(N)n3nc(-c4ccco4)nc3n2)CC1` [Example 92, (R)-(1-(7-amino-2-(furan-2-yl)-[1,2,4]triazolo[1,5-a][1,3,5]triazin-5-yl)pyrrolidin-2-yl)(4-(2-methoxyethyl)piperazin-1-yl)methanone] is 2290 nM; for `Nc1nc(N2CCC[C@H]2C(=O)N2CCN(C(=O)CO)CC2)nc2nc(-c3ccco3)nn12` [Example 237, 1-(4-((7-amino-2-(furan-2-yl)-[1,2,4]triazolo[1,5-a][1,3,5]triazin-5-yl)-L-prolyl)piperazin-1-yl)-2-hydroxyethan-1-one] it is 8 nM; for `CC(C)OCCN1CCN(C(=O)[C@@H]2CCCN2c2nc(N)n3nc(-c4ccco4)nc3n2)CC1` [Example 140, (S)-(1-(7-amino-2-(furan-2-yl)-[1,2,4]triazolo[1,5-a][1,3,5]triazin-5-yl)pyrrolidin-2-yl)(4-(2-isopropoxyethyl)piperazin-1-yl)methanone] it is 10 nM. Molecule `Nc1nc(N2CCC[C@H]2C(=O)N2CCN(C(=O)C3CCS(=O)(=O)CC3)CC2)nc2nc(-c3ccco3)nn12` [Example 106] returned an IC50 of 7 nM. The figure for `CN1CCN(C(=O)[C@@H]2CCCN2c2nc(N)n3nc(-c4ccco4)nc3n2)CC1` [Example 134, (S)-(1-(7-amino-2-(furan-2-yl)-[1,2,4]triazolo[1,5-a][1,3,5]triazin-5-yl)pyrrolidin-2-yl)(4-methylpiperazin-1-yl)methanone] is 86 nM.
